# Laboratory results reported in patent publication US6403034B1, “Method of reducing the concentration of recalcitrant organic contamination in a soil matrix” (priority 1995, dated 2002).
# Read-outs that look alike come from different tables or passages of the source.
# Key:
# [1] = Relative recalcitrancy classification of organic contaminants (FIG. 1); type: physicochemical
# [2] = Ozonation of contaminated soil slurry in 5-L reaction flask (Examples 1, 2 and 7); type: physicochemical
# [3] = type: physicochemical; settings: for soil concentration reduced by: continuous ozonation for 56 days
# [4] = Laboratory ozonation of contaminants, incubation versus oxidation phase (FIGS. 2, 5, 6, 8-12); type: physicochemical; settings: for incubation time: lab conditions
# [5] = aqueous solubility; cited from earlier work
# [6] = by solubility, volatility and non-reactivity standards
smiles,measurement,setting,value
ClC1=C(Cl)C2(Cl)C3C4C=CC(C4)C3C1(Cl)C2(Cl)Cl (stereo not shown) [Aldrin],relative recalcitrancy,[1],strongly recalcitrant
c1ccccc1 [Benzene],relative recalcitrancy,[1]; [6],non-recalcitrant
ClC1=C(Cl)C2(Cl)C3C(Cl)C(Cl)CC3C1(Cl)C2(Cl)Cl (stereo not shown) [Chlordane],relative recalcitrancy,[1],strongly recalcitrant
Clc1ccc(C(c2ccc(Cl)cc2)C(Cl)(Cl)Cl)cc1 [DDT],relative recalcitrancy,[1],strongly recalcitrant
CCCCCCCCOC(=O)c1ccccc1C(=O)OCCCCCCCC [Di-n-octyl phthalate],concentration reduced by,"[2]; Example 2, in 48 hours of ozonation, start 37 mg/Kg",97%
O=S1OCC2C(CO1)C1(Cl)C(Cl)=C(Cl)C2(Cl)C1(Cl)Cl (stereo not shown) [Endosulfan II],incubation phase,"[3]; 31 mg/kg, FIG. 17",about 16 days
same,soil concentration reduced by,[3],100%
CCOP(=S)(OCC)Oc1ccc([N+](=O)[O-])cc1 [Ethyl Parathion],soil concentration reduced by,[3],100%
Clc1c(Cl)c(Cl)c(Cl)c(Cl)c1Cl [HCB],incubation phase (ozonation time),[4],~8 h
"Oc1c(Cl)c(Cl)c(Cl)c(Cl)c1Cl [PCP, Pentachlorophenol]",incubation time,[4]; FIG. 10,about 45 minutes
same,concentration reduced by,"[2]; Example 1, in 31 hours, start 28 mg/Kg",97.5%
CCOP(=S)(OCC)Oc1ccc([S+](C)[O-])cc1 (stereo not shown) [Phensulfothion],soil concentration reduced by,[3],100%
c1cc2c3c(cccc3c1)CC2 [acenapthene],relative recalcitrancy,[1],recalcitrant
c1ccc2cc3ccccc3cc2c1 [anthracene],relative recalcitrancy,[1]; [6],recalcitrant
c1ccc2c(c1)cc1ccc3cccc4ccc2c1c34 [benzo(a)pyrene],incubation time,"[4]; FIGS. 6, 8, 9",more than 5 hours
c1ccc(-c2ccccc2)cc1 [biphenyl],relative recalcitrancy,[1],marginally recalcitrant
same,solubility,[5],"5,200 μg/L"
CCCCC(CC)COC(=O)c1ccccc1C(=O)OCC(CC)CCCC (stereo not shown) [bis(2-ethylhexyl)phthalate],incubation time,"[4]; FIGS. 6, 8, 9",less than 30 hours
same,concentration reduced by,"[2]; Example 2, in 72 hours of ozonation, start 597 mg/Kg",98.2%
same,relative recalcitrancy,[1]; [6],recalcitrant
c1ccc2c(c1)ccc1c3ccccc3ccc21 [chrysene],relative recalcitrancy,[1],recalcitrant
CCc1ccccc1 [ethylbenzene],relative recalcitrancy,[1],non-recalcitrant
CCCCCCC [heptane],relative recalcitrancy,[1]; [6],non-recalcitrant
CCOC(=O)CC(SP(=S)(OC)OC)C(=O)OCC (stereo not shown) [malathion],relative recalcitrancy,[1],recalcitrant
c1ccc2ccccc2c1 [napthalene],relative recalcitrancy,[1],recalcitrant
